# Assay results: patent US11952388B2, “Crystal form of tri-cycle compound and application thereof” (FUJIAN AKEYLINK BIOTECHNOLOGY CO., LTD., priority 2018, dated 2024)
# Test: Pre-stability (solid stability) test of crystal form B, HPLC analysis
# Type: physicochemical
# Method: [table] Note: • X indicates testing items, including: XRPD, content and related substances, day 0 samples were stored at −20° C.; • ICH indicate the illumination condition that guides the placement of the samples, i.e., illumination (total illuminance=1.2×10^6 Lux·hr/near ultraviolet=200 w·hr/m^2, with the lid open). About 10 mg of the crystal form B of the compound represented by formula (I) was weighed and placed at the bottom of a 40 mL glass bottle, and spread into a thin layer. The bottleneck was wrapped with aluminum foil paper (except for illuminated samples), and some small holes were punctured on the aluminum foil paper to ensure that the samples can fully contact the ambient air. The illuminated sample was placed at the bottom of a 40 mL glass bottle, which was placed vertically in the illuminated box with the lid open; the control sample was placed at the bottom of glass vials, which was placed vertically with the lid open, and wrapped with tin foil to protect it from light. Under each condition, 2 aliquots of sample were weighed in parallel at each time point, and an additional appropriate amount of sample (not weighed) was taken for XRPD detection. The prepared samples were placed under various conditions shown in the following Table, and samples were analyzed respectively by HPLC after reaching the time points. 1.1 Preparation of Diluent and Mobile Phase • Diluent: Acetonitrile:Water (2:1) • Example: 1000 mL of acetonitrile and 500 mL of water were mixed evenly, ultrasonically degassed, and cooled to room temperature. • Mobile phase A: 0.1% trifluoroacetic acid aqueous solution • Example: 2.0 mL of trifluoroacetic acid was added to 2 L of water and mixed well, ultrasonically degassed, and cooled to room temperature. • Mobile phase B: 100% acetonitrile The crystal form B of compound represented by formula (I) was used as control. The crystal form B of compound represented by formula (I) was placed in a glass bottle, then 5 mL of diluent was added into the bottle to a concentration of 1 mg/mL, and the solution was mix well ultrasonically. And then the mixture was diluted 5 times to obtain the control sample solution STD1. STD1 was diluted 1, 2, 4, 20 and 200 times to prepare a 1% control solution. Diluent was added to each test sample to a concentration of 10 mL, then the samples were ultrasonically dissolved. HPLC test was performed after cooling to room temperature. Meanwhile, the sample solution was diluted 5 times and mixed well, and then tested by HPLC. [table]
# [1] = Illumination of Control (light-proof)
compound,measurement,setting,value
Cc1cc2n(c1)S(=O)(=O)c1ccc(C(=O)NCC[C@H]3COCCO3)cc1NC2=O,Assay (content of the sample),"40° C., 75% humidity, 1 month",100.6%
same,TRS (sum of impurities),"40° C., 75% humidity, 1 month",1.20%
same,impurity at relative retention time 0.87,"40° C., 75% humidity, 1 month",0.34%
same,impurity at relative retention time 1.07,"40° C., 75% humidity, 1 month",0.07%
same,impurity at relative retention time 1.12,"40° C., 75% humidity, 1 month",0.65%
same,impurity at relative retention time 1.14,"40° C., 75% humidity, 1 month",0.13%
same,Assay (content of the sample),"40° C., 75% humidity, 10 days",100.7%
same,TRS (sum of impurities),"40° C., 75% humidity, 10 days",1.19%
same,impurity at relative retention time 0.87,"40° C., 75% humidity, 10 days",0.34%
same,impurity at relative retention time 1.07,"40° C., 75% humidity, 10 days",0.06%
same,impurity at relative retention time 1.12,"40° C., 75% humidity, 10 days",0.65%
same,impurity at relative retention time 1.14,"40° C., 75% humidity, 10 days",0.13%
same,Assay (content of the sample),"60° C., 75% humidity, 1 month",100.3%
same,TRS (sum of impurities),"60° C., 75% humidity, 1 month",1.21%
same,impurity at relative retention time 0.87,"60° C., 75% humidity, 1 month",0.35%
same,impurity at relative retention time 1.07,"60° C., 75% humidity, 1 month",0.07%
same,impurity at relative retention time 1.12,"60° C., 75% humidity, 1 month",0.65%
same,impurity at relative retention time 1.14,"60° C., 75% humidity, 1 month",0.13%
same,Assay (content of the sample),"60° C., 75% humidity, 10 days",101.4%
same,TRS (sum of impurities),"60° C., 75% humidity, 10 days",1.20%
same,impurity at relative retention time 0.87,"60° C., 75% humidity, 10 days",0.35%
same,impurity at relative retention time 1.07,"60° C., 75% humidity, 10 days",0.07%
same,impurity at relative retention time 1.12,"60° C., 75% humidity, 10 days",0.65%
same,impurity at relative retention time 1.14,"60° C., 75% humidity, 10 days",0.13%
same,Assay (content of the sample),"60° C., 5 days",100.1%
same,TRS (sum of impurities),"60° C., 5 days",1.19%
same,impurity at relative retention time 0.87,"60° C., 5 days",0.35%
same,impurity at relative retention time 1.07,"60° C., 5 days",0.07%
same,impurity at relative retention time 1.12,"60° C., 5 days",0.65%
same,impurity at relative retention time 1.14,"60° C., 5 days",0.13%
same,Assay (content of the sample),"60° C., 10 days",100.1%
same,TRS (sum of impurities),"60° C., 10 days",1.21%
same,impurity at relative retention time 0.87,"60° C., 10 days",0.36%
same,impurity at relative retention time 1.07,"60° C., 10 days",0.07%
same,impurity at relative retention time 1.12,"60° C., 10 days",0.65%
same,impurity at relative retention time 1.14,"60° C., 10 days",0.13%
same,Assay (content of the sample),"92.5% humidity, 5 days",100.0%
same,TRS (sum of impurities),"92.5% humidity, 5 days",1.21%
same,impurity at relative retention time 0.87,"92.5% humidity, 5 days",0.36%
same,impurity at relative retention time 1.07,"92.5% humidity, 5 days",0.07%
same,impurity at relative retention time 1.12,"92.5% humidity, 5 days",0.65%
same,impurity at relative retention time 1.14,"92.5% humidity, 5 days",0.13%
same,Assay (content of the sample),"92.5% humidity, 10 days",100.7%
same,TRS (sum of impurities),"92.5% humidity, 10 days",1.20%
same,impurity at relative retention time 0.87,"92.5% humidity, 10 days",0.35%
same,impurity at relative retention time 1.07,"92.5% humidity, 10 days",0.06%
same,impurity at relative retention time 1.12,"92.5% humidity, 10 days",0.65%
same,impurity at relative retention time 1.14,"92.5% humidity, 10 days",0.13%
same,Assay (content of the sample),Day 0,100.5%
same,TRS (sum of impurities),Day 0,1.20%
same,impurity at relative retention time 0.87,Day 0,0.35%
same,impurity at relative retention time 1.07,Day 0,0.06%
same,impurity at relative retention time 1.12,Day 0,0.65%
same,impurity at relative retention time 1.14,Day 0,0.14%
same,Assay (content of the sample),"Illumination (1 ICH, lid open)",83.5%
same,TRS (sum of impurities),"Illumination (1 ICH, lid open)",9.50%
same,impurity at relative retention time 0.16,"Illumination (1 ICH, lid open)",0.07%
same,impurity at relative retention time 0.19,"Illumination (1 ICH, lid open)",0.32%
same,impurity at relative retention time 0.24,"Illumination (1 ICH, lid open)",0.12%
same,impurity at relative retention time 0.26,"Illumination (1 ICH, lid open)",0.12%
same,impurity at relative retention time 0.31,"Illumination (1 ICH, lid open)",0.12%
same,impurity at relative retention time 0.36,"Illumination (1 ICH, lid open)",0.19%
same,impurity at relative retention time 0.38,"Illumination (1 ICH, lid open)",0.08%
same,impurity at relative retention time 0.60,"Illumination (1 ICH, lid open)",0.28%
same,impurity at relative retention time 0.62,"Illumination (1 ICH, lid open)",0.12%
same,impurity at relative retention time 0.70,"Illumination (1 ICH, lid open)",0.10%
same,impurity at relative retention time 0.78,"Illumination (1 ICH, lid open)",0.16%
same,impurity at relative retention time 0.79,"Illumination (1 ICH, lid open)",0.24%
same,impurity at relative retention time 0.82,"Illumination (1 ICH, lid open)",2.26%
same,impurity at relative retention time 0.87,"Illumination (1 ICH, lid open)",4.49%
same,impurity at relative retention time 0.89,"Illumination (1 ICH, lid open)",0.07%
same,impurity at relative retention time 0.90,"Illumination (1 ICH, lid open)",0.07%
same,impurity at relative retention time 1.07,"Illumination (1 ICH, lid open)",<0.05%
same,impurity at relative retention time 1.12,"Illumination (1 ICH, lid open)",0.52%
same,impurity at relative retention time 1.14,"Illumination (1 ICH, lid open)",0.12%
same,impurity at relative retention time 1.42,"Illumination (1 ICH, lid open)",0.06%
same,Assay (content of the sample),[1],100.3%
same,TRS (sum of impurities),[1],1.18%
same,impurity at relative retention time 0.87,[1],0.34%
same,impurity at relative retention time 1.07,[1],0.07%
same,impurity at relative retention time 1.12,[1],0.64%
same,impurity at relative retention time 1.14,[1],0.13%
same,solid stability (conclusion in words),high temperature and high humidity conditions,stable under high temperature and high humidity conditions
